Laboratory results as given in patent US20080026996A1, “Selective Vpac2 Receptor Reptide Agonists” (ELI LILLY AND COMPANY, priority 2004, published 2008).
Read-outs that look alike come from different tables or passages of the source. Where a SMILES comes first, the peptide text is derived from it. Where no end group is shown, it is not given here. [ ]: non-standard residue; d: D form. The star is where a group is joined. Hexanoyl = CCCCCC(=O)*; Aib = CC(C)(N)C(=O)O

Legend:
[1] = Rat serum stability studies (remaining active peptide by DiscoveRx cAMP on CHO-VPAC2 cells); type: in vitro ADME
Procedure, shortened: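 Rat serum, 18 h: +aprotinin aliquot at 4° C, no-aprotinin aliquot at 37° C. Then 30 min RT step, supernatant removed, 1 h shaking at 300 rpm. DiscoveRx cAMP kit on CHO-VPAC2; EC50 from cAMP data vs standards.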

[2] = rat, in vivo, iv; for Exposure (10 μg/kg, Vdist in μg/(nM * kg)): 10 ug/kg
Protocol: (§4) An IVGTT with glucose is given immediately after T=0 to 6 animals per condition. Samples are taken at 0, 2, 4, 6, and 10 minutes after injection.
(§5) For cell handling, Plate 50,000 cells/well and keep in culture over night. Wash cell twice in PBS and add 50 μl/well stimulation medium consisting of PBS+1.2 MgCl2, 1.3 CaCl2, 2 glucose and 0.5 IBMX. Incubate 15 minutes and add 50 μl/well of the plasma samples (see layout below). Incubate 30 minutes, remove the supernatant and proceed as normal with the DiscoveRx assay. Prepare plates in duplicate. Protease and peptidase inhibitor are present in all plasma samples.

[3] = target: T1, rat VPAC1 receptor (Rattus norvegicus, UniProt P30083); assay: Competition binding on recombinant rat VPAC1 receptor expressed in CHO cells, 125I-VIP tracer; parameters: expressed in transfected cells; host or cells: CHO cells, crude membranes
T1 sequence (P30083 31-459): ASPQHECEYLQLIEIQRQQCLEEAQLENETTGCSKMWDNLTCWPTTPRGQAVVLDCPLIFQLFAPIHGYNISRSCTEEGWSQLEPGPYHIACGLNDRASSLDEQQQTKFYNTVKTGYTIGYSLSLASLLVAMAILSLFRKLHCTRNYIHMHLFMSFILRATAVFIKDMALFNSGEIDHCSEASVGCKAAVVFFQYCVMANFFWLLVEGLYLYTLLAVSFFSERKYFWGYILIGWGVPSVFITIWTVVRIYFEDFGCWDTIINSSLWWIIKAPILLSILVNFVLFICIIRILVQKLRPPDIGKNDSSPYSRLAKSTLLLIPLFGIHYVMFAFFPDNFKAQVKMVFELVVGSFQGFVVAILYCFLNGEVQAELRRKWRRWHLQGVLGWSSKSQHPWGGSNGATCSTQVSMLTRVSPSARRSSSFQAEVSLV
Protocol: (§6) The peptide samples are stored frozen and thawed prior to the assay. […] All peptide sample and reference compound dilutions are performed in PBS. Peptides solutions are kept in the cold room for four days. Stock solutions are stored at −80° C. New dilution curves are prepared every week.
(§7) Each assay is done in duplicate and performed on two different membrane preparations.

[4] = target: T1, rat VPAC1 receptor; assay: Adenylate cyclase activation on membrane preparations expressing rat VPAC1 receptor; type: biochemical; parameters: expressed in transfected cells; host or cells: CHO cells, crude membranes; details: for VPAC1 cAMP max: maximal increase in cyclic AMP production (over basal) per minute and per mg protein
Protocol: (§1) All studies are performed on crude membranes prepared from three different cell cultures expressing the different recombinant receptors, using methodology that is known in the literature. Duplicate values are obtained for each assay.
(§2) The selectivity of the VPAC2 receptor peptide agonists of the present invention are tested on the rat VPAC1 and VPAC2 receptors recombinantly expressed in CHO cells. The compound of the invention were evaluated in receptor binding & adenylate cyclase activation assays.
(§3) Dose-effect curves of adenylate cyclase activation were generated using the VPAC2 receptor peptide agonists (10^−11 to 10^−6 M, two concentrations per log) of the present invention.
Adenylate cyclase activity was determined by the procedure of Salomon et al. (1974), A highly sensitive adenylate cyclase assay. Analytical Biochemistry 58 (1974. Membrane proteins ([…]) are incubated in a total volume of […] containing 0.5 mM [^32P]-ATP, 10 µM GTP, 5 mM MgCl2, 0.5 mM EGTA, 1 mM cAMP, 1 mM theophylline, 10 mM phospho(enol)pyruvate, […] pyruvate kinase and 30 mM Tris-HCl at a final pH of 7.8. The reaction is initiated by membrane addition and is terminated after 15 min incubation at 37° C. by addition of 0.5 ml of 0.5% sodium dodecyl-sulfate solution containing 0.5 mM ATP, 0.5 mM cAMP and […] [^3H]-cAMP. cAMP was separated from ATP by two successive chromatographies on Dowex 50Wx8 and neutral alumina.

[5] = in vivo; details: Wistar, rat, iv
Protocol: as §4, §5

[6] = target: T2, rat VPAC2 receptor (Rattus norvegicus, UniProt P35000); assay: Competition binding on recombinant rat VPAC2 receptor expressed in CHO cells, 125I-RO 25-1553 tracer; parameters: expressed in transfected cells; host or cells: CHO cells, crude membranes; details: for VPAC1/VPAC2 ratio between the IC50 values (index of selectivity): rat receptors, binding
T2 sequence (P35000 23-437): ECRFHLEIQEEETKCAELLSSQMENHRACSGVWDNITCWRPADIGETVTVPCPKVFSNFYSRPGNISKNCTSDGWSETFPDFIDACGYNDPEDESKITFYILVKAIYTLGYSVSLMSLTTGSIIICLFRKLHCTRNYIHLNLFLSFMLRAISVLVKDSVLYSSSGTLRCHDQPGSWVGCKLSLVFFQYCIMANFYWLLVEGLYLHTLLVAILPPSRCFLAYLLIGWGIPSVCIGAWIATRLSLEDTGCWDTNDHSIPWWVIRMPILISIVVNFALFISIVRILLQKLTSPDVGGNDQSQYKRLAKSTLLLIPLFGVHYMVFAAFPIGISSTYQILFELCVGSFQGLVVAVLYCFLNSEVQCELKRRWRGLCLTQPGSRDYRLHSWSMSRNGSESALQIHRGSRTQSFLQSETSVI
Protocol: as §6, §7

[7] = target: T2, rat VPAC2 receptor; assay: DiscoveRx in vitro potency, CHO-PO cells transiently transfected with rat VPAC 2 receptor DNA; type: cell-based; parameters: expressed in transfected cells; host or cells: CHO-PO, transient
Protocol: Also, the cells are washed twice. […] The stimuli are present for 30 minutes. Then, the assay buffer is gently removed.

[8] = target: T2, rat VPAC2 receptor; assay: Adenylate cyclase activation on membrane preparations expressing rat VPAC2 receptor; type: biochemical; parameters: expressed in transfected cells; host or cells: CHO cells, crude membranes; details: for VPAC2 cAMP max: maximal increase in cyclic AMP production (over basal) per minute and per mg protein; for VPAC1/VPAC2 ratio of EC50: rat receptors
Protocol: as §1, §2, §3

[9] = IC50 of tracer inhibition, 125I-VIP, with standard error, read-out: RAT VPAC1 IC50 (log M) (converted)
[10] = adenylate cyclase activation, rat VPAC1 membranes, with standard error, read-out: VPAC1 EC50 (log M) (converted)
[11] = IC50 of tracer inhibition, 125I-RO 25-1553, with standard error, read-out: RAT VPAC2 IC50 (log M) (converted)
[12] = adenylate cyclase activation, rat VPAC2 membranes, with standard error, read-out: VPAC2 EC50 (log M) (converted)

Molecule | Rat Serum Stability (estimated purity in % after 18 hours) [1] [%] | Exposure (10 μg/kg, Vdist in μg/(nM * kg)) [2] [µg/nM/kg] | IC50 [3, 9] [nM] | EC50 [4, 10] [nM] | VPAC1 cAMP max [4] | AUC(0-t) ([5]; 10 ug/kg) [nM·h] | Cmax ([5]; 10 ug/kg) [nM] | half-life ([5]; 10 ug/kg) [min] | IC50 [6, 11] [nM] | VPAC1/VPAC2 ratio between the IC50 values (index of selectivity) [6] | EC50 [7] [nM] | EC50 [8, 12] [nM] | VPAC2 cAMP max [8] | VPAC1/VPAC2 ratio of EC50 ([8]; adenylate cyclase activation) | other results
CCCCCC(=O)N[C@@H](Cc1c[nH]cn1)C(=O)N[C@@H](CO)C(=O)N[C@@H](CC(=O)O)C(=O)N[C@@H](C)C(=O)N[C@H](C(=O)N[C@@H](Cc1ccccc1)C(=O)N[C@H](C(=O)N[C@@H](CC(=O)O)C(=O)N[C@@H](CC(N)=O)C(=O)N[C@@H](Cc1ccc(O)cc1)C(=O)N[C@H](C(=O)N[C@@H](CCCNC(=N)N)C(=O)N[C@@H](CC(C)C)C(=O)N[C@@H](CCCNC(=N)N)C(=O)NC(C)(C)C(=O)N[C@@H](CCC(N)=O)C(=O)N[C@@H](CC(C)C)C(=O)N[C@@H](C)C(=O)N[C@@H](C)C(=O)NC(C)(C)C(=O)N[C@@H](CCCCN)C(=O)N[C@@H](Cc1ccc(O)cc1)C(=O)N[C@@H](CC(C)C)C(=O)N[C@@H](CCC(N)=O)C(=O)N[C@@H](CO)C(=O)N[C@H](C(=O)N[C@@H](CCCCN)C(=O)N[C@@H](CC(N)=O)C(=O)N[C@@H](CCCCN)C(=O)NCC(=O)NCC(=O)N1CCC[C@H]1C(=O)N[C@@H](CO)C(=O)N[C@@H](CO)C(=O)NCC(=O)N[C@@H](C)C(=O)N1CCC[C@H]1C(=O)N1CCC[C@H]1C(=O)N1CCC[C@H]1C(=O)N[C@@H](CO)C(=O)O)[C@@H](C)CC)[C@@H](C)O)[C@@H](C)O)C(C)C [Agonist P292] (Hexanoyl-HSDAVFTDNYTRLR[Aib]QLAA[Aib]KYLQSIKNKGGPSSGAPPPS-OH; C-terminus assumed) | 33.43 | 1.9 | 204 | 11.5 | 124 | 0.688 | 5.37 | 5.5 | 0.759 | 269 | 0.07 | 0.115 | 79.1 | 100 | Exposure (0.5 μg/kg, Vdist in μg/(nM * kg)) ([2]; 0.5 ug/kg): 9.5 µg/nM/kg; AUC(0-t) ([5]; 0.5 ug/kg): 0.0167 nM·h; Cmax ([5]; 0.5 ug/kg): 0.12 nM; half-life ([5]; 0.5 ug/kg): 15 min
H-MHSDAVFTDNYTRLRKQVAAKKYLQSIKNKRYGGPSSGAPPPS [Agonist P104] | – | – | – | – | 195 ± 18 | – | – | – | – | 977 | – | – | 129 ± 19 | 184 | Rat Serum Stability (estimated purity in % after 18 hours) ([1]; 10 μM peptide in rat serum, 37° C., 18 hours, versus 4° C. aliquot with aprotinin): 1.01%; IC50 [3]: 1760 nM; EC50 [4]: 186 nM; IC50 [6]: 1.8 nM; EC50 [8]: 1.01 nM
Hexanoyl-HSDAVFTDNYTRLLAKLALQKYLQSIKNKRYGGPSSGAPPPS [Agonist P119] | – | – | 29.2 | 2.9 | 207 ± 13 | – | – | – | 0.618 | 47 | – | 0.0912 | 133 ± 18 | 32 | –
Hexanoyl-HSDAVFTDNYTRLRKQVAAKKYLQSIKNKRYGGPSSGAPPPS [Agonist P31] | – | 10 | 210 | 25.2 | 200 ± 13 | 0.308 | 4.37 | 12 | 0.385 | 546 | – | 0.145 | 134 ± 12 | 174 | –
Hexanoyl-HSDAVFTDNYTRLR[Aib]QVAAK[Aib]YLQSIKNKRYGGPSSGAPPPS [Agonist P264] | 19.22 | 5.1 | – | – | – | 0.06 | 0.96 | 1.3 | – | – | 0.1 | – | – | – | Rat Serum Stability (Estimated purity in % after 72 hours) [1]: 0.9%
Hexanoyl-HSDAVFTDNYTRLR[Aib]QVAA[Aib]KYLQSIKNKRYGGPSSGAPPPS [Agonist P261] | 27.06 | 0.8 | 129 | 12.6 | 126 | 0.898 | 12.1 | 3.2 | 0.355 | 363 | 0.04 | 0.0631 | 78.5 | 200 | –
